In patent publication US10604514B2, “6-(5-membered heteroaryl)isoquinolin-3-yl carboxamides and preparation and use thereof” (Samumed, LLC, priority 2017, dated 2020) one finds EC50 and inhibition data, which are given here for 15 compounds.

In assay [1] the test system is Wnt activity (Sp5-Luc reporter in SW480 colon carcinoma cells). Description: Wnt activity screening assay (Sp5-Luc reporter gene assay). In kind it is cell-based, human. Particulars: Homo sapiens; for EC50: Sp5-Luc reporter, SW480 cells, 36 to 48 hours. The procedure, abridged:
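SW480 cells stably carrying an Sp5 promoter (eight TCF/LEF sites)-firefly luciferase reporter were plated in DMEM with 1% FBS and treated with a 10-point, 1:3 dilution series from 10 μM (0.1% DMSO) for 36 to 48 h at 37° C. Luminescence was normalized to DMSO controls, and EC50 came from four-parameter nonlinear regression.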

The subject of assay [2] is LL29 cells (primary human fibroblasts derived from IPF patients), α-smooth muscle actin. Briefly: Inhibition of fibrotic process: αSMA in TGF-β1-treated primary human fibroblasts from IPF patients (LL29 cells). In kind it is cell-based. Particulars: Homo sapiens, Fibroblast; for EC50: 96 h, % αSMA-positive LL29 cells, TGF-β1 20 ng/mL, 4 days; for inhibition at 10 µM: read-out: percent inhibition at 10 μM. In a few lines:
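IPF-patient lung fibroblasts (LL29) were stimulated with TGF-β1 (20 ng/mL) in 1% FBS medium with compound (11-point 1:2 series, 0.1% DMSO) for 4 days at 37 °C. Fixed cells were immunostained for αSMA and imaged, excluding SYTOX-positive dead cells. The % αSMA-positive cells was normalized to TGF-β1/DMSO control wells.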

Assay [3] concerns the target GSK3β kinase (Homo sapiens (Human), UniProt P49841). Briefly: GSK3β kinase assay (Ser/Thr 09 peptide Z-lyte, FRET).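 Also: Coumarin/fluorescein emission ratio converted to percent phosphorylation against unphosphorylated (0%) and phosphorylated (100%) controls, 1 h compound incubation at room temperature, 11-point threefold dilutions from 10 µM, run in duplicate.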 In kind it is biochemical. Particulars: method text calls the value IC50.
In assay [4] the test system is Tau phosphorylation at Ser396 (pSer396), SH-SY5Y cells. Description: Tau phosphorylation at Ser396 (pSer396) in SH-SY5Y cells, ELISA/western blot.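 Also: cell lysates probed for reduced Tau pSer396 via ELISA (colorimetric) or western blot (chemiluminescence), both with one shared pSer396 antibody, EC50 for lowering phosphorylation.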 In kind it is cell-based, human. Particulars: Homo sapiens; SH-SY5Y cells, overnight (16-18 h); read-out: pSer396 Tau EC50.
In assay [5] the target is DYRK1A kinase (Homo sapiens (Human), UniProt Q13627). Description: DYRK1A kinase assay (Ser/Thr 18 peptide Z-lyte, FRET).
In assay [6] the test system is IL-6. Briefly: IL-6 inhibition in LPS-stimulated human peripheral blood mononuclear cells (HTRF). In kind it is cell-based. Particulars: Homo sapiens, PBMC; for inhibition at 10 µM: read-out: percent value in parentheses below EC50 >10; for EC50: IL-6, LPS-stimulated huPBMCs, HTRF. In a few lines: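 Fresh human PBMCs (5000 cells/well, 1% FBS RPMI) preincubated with compound (10-point 1:3 series from 10 μM, 0.25% DMSO) 2 h at 37 °C, then stimulated with 50 ng/mL E. coli LPS for 22 h. IL-6 by HTRF 665/620 ratio; DMSO-normalized, EC50 from 4-parameter fit.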
In general terms: TR-FRET usually uses a lanthanide donor and a delayed reading to cut background.

For assay [7], the system named is SW480 colon carcinoma cells. Briefly: Cell viability assay (CellTiter-Glo) in SW480 cells.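 As to all read-outs here: SW480 cells stably carrying an Sp5-luciferase TCF/LEF reporter, luminescent ATP signal as viability measure, DMSO-treated cells as control.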 In kind it is cell-based, human. Particulars: Homo sapiens; for EC50: 96 h, cell viability, SW480 cells, four days, CellTiter-Glo.
Experimental: Representative compounds were screened using the assay procedure to assess the effect on cell viability as described below.
SW480 colon carcinoma cells were transduced with a lentiviral vector expressing luciferase with a human Sp5 promoter consisting of a sequence of eight TCF/LEF binding sites. SW480 cells stably expressing the Sp5-Luc reporter gene and a hygromycin resistance gene were selected by treatment with 150 μg/mL of hygromycin for 7 days. These stably transduced SW480 cells were expanded in cell culture and used for all further screening activities. Each compound was dissolved in DMSO as a 10 mM stock and used to prepare compound source plates.
For the Cell Viability Assays, the cells were plated at 2,000 cells/well in 384-well plates with a DMEM medium containing 1% fetal bovine serum, and 1% Penicillin-Streptomycin and incubated for four days hours at 37° C. and 5% CO2. Eight replicates of DMSO-treated cells served as controls and cells treated with compound were performed in duplicate.
After incubation, 10 μL of CellTiter-Glo (Promega) was added to each well allowed to incubate for approximately 12 minutes.
Dose-response curves were generated and EC50 concentration values were calculated using non-linear regression curve fit in the GraphPad Prism (San Diego, Calif.) or Dotmatics' Studies Software (Bishops Stortford, UK).
The mark [8] stands for this setting: DYRK1A kinase, method text calls the value IC50.
The mark [9] stands for this setting: SW480, read-out: percent inhibition at 10 μM.

Read-outs that look alike come from different tables or passages of the source.

Sequence of GSK3β kinase (P49841 whole entry): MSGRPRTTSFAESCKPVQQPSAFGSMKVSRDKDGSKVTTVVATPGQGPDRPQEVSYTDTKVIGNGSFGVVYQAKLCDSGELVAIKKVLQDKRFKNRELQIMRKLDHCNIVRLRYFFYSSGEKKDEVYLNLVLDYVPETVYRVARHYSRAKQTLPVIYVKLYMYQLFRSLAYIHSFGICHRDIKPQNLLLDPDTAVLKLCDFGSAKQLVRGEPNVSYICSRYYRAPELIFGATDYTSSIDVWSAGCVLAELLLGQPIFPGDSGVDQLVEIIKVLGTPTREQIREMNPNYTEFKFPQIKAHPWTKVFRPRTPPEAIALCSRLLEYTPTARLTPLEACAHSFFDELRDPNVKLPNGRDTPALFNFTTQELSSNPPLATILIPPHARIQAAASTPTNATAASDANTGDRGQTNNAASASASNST

As to `CC(C)N1CCN(C(=O)Nc2cc3cc(-c4cnn(C)c4)ccc3cn2)CC1` [Compound 65, 4-isopropyl-N-(6-(1-methyl-1H-pyrazol-4-yl)isoquinolin-3-yl)piperazine-1-carboxamide], the EC50 is 725 nM in assay [1]; 2350 nM in assay [2]; 2840 nM in assay [3]; over 10000 nM in assay [4]; 70 nM in assay [5] (setting [8]); over 10000 nM in assay [6]. This compound gave an EC50 in assay [7] of over 10000 nM. For the same compound, the inhibition at 10 µM in assay [6] is 4.8%; in assay [7] (setting [9]), 7.3%.
With `Cc1nnc(-c2ccc3cnc(NC(=O)N4CCC(NCCC(F)(F)F)CC4)cc3c2)s1` [Compound 147, N-(6-(5-Methyl-1,3,4-thiadiazol-2-yl)isoquinolin-3-yl)-4-((3,3,3-trifluoropropyl)amino)piperidine-1-carboxamide], the EC50 in assay [1] was 3330 nM; in assay [2], 1640 nM; in assay [3], 37 nM; in assay [4], 1100 nM; in assay [5] (setting [8]) it was 18 nM; in assay [6], over 10000 nM. The compound further registered an EC50 in assay [7] of 4140 nM. Also, the inhibition at 10 µM in assay [6] is 36.8%.
Consider `Cn1cc(-c2cc(F)c3cnc(NC(=O)[C@H]4CC[C@H](N5CCOCC5)CC4)cc3c2)nn1` [Compound 56, trans-N-(8-Fluoro-6-(1-methyl-1H-1,2,3-triazol-4-yl)isoquinolin-3-yl)-4-morpholinocyclohexane-1-carboxamide], for which the EC50 in assay [1] stood at 5350 nM; in assay [2], 285 nM; in assay [3] it was 9 nM; in assay [4], 92 nM; in assay [5] (setting [8]) it was 4 nM; in assay [6], 3370 nM. Also, in assay [7], a half-maximal response (EC50) required 6500 nM.
Regarding `Cc1ncc(-c2ccc3cnc(NC(=O)[C@H]4CC[C@H](N(C)CC(F)F)CC4)cc3c2)o1` [Compound 44, trans-4-((2,2-Difluoroethyl)(methyl)amino)-N-(6-(2-methyloxazol-5-yl)isoquinolin-3-yl)cyclohexane-1-carboxamide], the EC50 is 799 nM in assay [1]; 247 nM in assay [2]; 65 nM in assay [3]; 445 nM in assay [4]; 5 nM in assay [5] (setting [8]); 1130 nM in assay [6]. This compound also gave an EC50 in assay [7] of 2800 nM.
Turning to `Cc1nnc(-c2ccc3cnc(NC(=O)N4CCN(C)[C@H](C)C4)cc3c2)s1` [Compound 109, (R)-3,4-Dimethyl-N-(6-(5-methyl-1,3,4-thiadiazol-2-yl)isoquinolin-3-yl) piperazine-1-carboxamide], the EC50 in assay [1] was 7810 nM; in assay [2], over 10000 nM; in assay [3], 175 nM; in assay [4] it was 3100 nM; in assay [5] (setting [8]), 10 nM; in assay [6], over 10000 nM. In assay [7], this compound registered an EC50 of 4130 nM. Further, the inhibition at 10 µM came out at 19.5% in assay [2] and 6.9% in assay [6].
For the compound `[2H]C([2H])([2H])c1ccc(C(=O)Nc2cc3cc(-c4cncn4C)ccc3cn2)cc1` [Compound 84, 4-(Methyl-d3)-N-(6-(1-methyl-1H-imidazol-5-yl)isoquinolin-3-yl)benzamide], in assay [1] (setting [9]), the inhibition at 10 µM is 25.5%. Further, the EC50 was over 10000 nM in assay [1]; 630 nM in assay [2]; 1050 nM in assay [3]; 1400 nM in assay [4]; 2 nM in assay [5]; 1300 nM in assay [6]. The EC50 in assay [7] worked out at 494 nM.
With `Cn1cc(-c2ccc3cnc(NC(=O)[C@H]4CC[C@H](N5CCOCC5)CC4)cc3c2)nn1` [Compound 100, trans-N-(6-(1-Methyl-1H-1,2,3-triazol-4-yl)isoquinolin-3-yl)-4-morpholinocyclohexane-1-carboxamide], the 50% effective concentration (EC50) in assay [1] amounted to 720 nM; in assay [2] it was 64 nM; in assay [3], 11 nM; in assay [4], 113 nM; in assay [5] (setting [8]), 3 nM; in assay [6], 2020 nM. The midpoint of the response in assay [7], the EC50, lay at 1530 nM.
`Cc1cn2c(n1)CN(C(=O)Nc1cc3cc(-c4cnc(C)o4)ccc3cn1)CC2` [Compound 59, 2-Methyl-N-(6-(2-methyloxazol-5-yl)isoquinolin-3-yl)-5,6-dihydroimidazo [1,2-a]pyrazine-7(8H)-carboxamide]: the EC50 in assay [1] turned out to be 4100 nM; in assay [2], 297 nM; in assay [3] it was 15 nM; in assay [4] it was 35 nM; in assay [5] (setting [8]) it was 3 nM; in assay [6], 129 nM. The compound also displayed an EC50 in assay [7] of 140 nM.
Consider `Cn1cc(-c2ccc3cnc(NC(=O)[C@H]4CC[C@H](NCCF)CC4)cc3c2)cn1` [Compound 197, trans-4-((2-Fluoroethyl)amino)-N-(6-(1-methyl-1H-pyrazol-4-yl)isoquinolin-3-yl)cyclohexane-1-carboxamide], for which the EC50 came to 1420 nM in assay [1]; 233 nM in assay [2]; 87 nM in assay [3]; 570 nM in assay [4]; 3 nM in assay [5] (setting [8]); 994 nM in assay [6]. This compound also returned an EC50 in assay [7] of 1270 nM.
Take `CN1CCN(C(=O)[C@H]2CC[C@H](C(=O)Nc3cc4cc(-c5cnn(C)c5)cc(F)c4cn3)CC2)CC1` [Compound 102, trans-N-(8-Fluoro-6-(1-methyl-1H-pyrazol-4-yl)isoquinolin-3-yl)-4-(4-methylpiperazine-1-carbonyl)cyclohexane-1-carboxamide]: the EC50 in assay [1] worked out at 3250 nM; in assay [2], 2400 nM; in assay [3] it was 434 nM; in assay [4], 2600 nM; in assay [5] (setting [8]) it was 5 nM; in assay [6], 2920 nM. Moreover, in assay [7], the midpoint of the response, the EC50, lay at 3030 nM.
On to `Cc1ncc(-c2ccc3cnc(NC(=O)N4CC[C@H](N)[C@@H](F)C4)cc3c2)o1` [Compound 51, (3S,4S)-4-Amino-3-fluoro-N-(6-(2-methyloxazol-5-yl)isoquinolin-3-yl) piperidine-1-carboxamide], for which the EC50 amounted to 36 nM in assay [1]; 2490 nM in assay [2]; 349 nM in assay [3]; 656 nM in assay [4]; 14 nM in assay [5] (setting [8]); 3240 nM in assay [6]. The EC50 in assay [7] was 3940 nM.
As to `[2H]c1c([2H])c([2H])c(/C=C/C(=O)Nc2cc3cc(-c4cncn4C)ccc3cn2)c([2H])c1[2H]` [Compound 93, (E)-N-(6-(1-methyl-1H-imidazol-5-yl)isoquinolin-3-yl)-3-(phenyl-2,3,4,5,6-d5)acrylamide], the EC50 was 67 nM in assay [1]; 145 nM in assay [2]; 238 nM in assay [3]; 259 nM in assay [4]; 2 nM in assay [5]; 280 nM in assay [6]. The EC50 in assay [7] turned out to be 98 nM.
For `Cc1ncc(-c2ccc3cnc(NC(=O)[C@H]4CC[C@H](N)CC4)cc3c2)o1` [Compound 149, trans-4-amino-N-(6-(2-methyloxazol-5-yl)isoquinolin-3-yl)cyclohexane-1-carboxamide], the concentration for a half-maximal effect (EC50) in assay [1] was determined as 1400 nM; in assay [2], 216 nM; in assay [3] it was 128 nM; in assay [4], 1100 nM; in assay [5] (setting [8]), 7 nM; in assay [6], 379 nM. The compound further gave an EC50 in assay [7] of 1340 nM.
For `Cn1cnnc1-c1ccc2cnc(NC(=O)CN3CCOCC3)cc2c1` [Compound 14, N-(6-(4-Methyl-4H-1,2,4-triazol-3-yl)isoquinolin-3-yl)-2-morpholinoacetamide], the EC50 is 5350 nM in assay [1]; 1380 nM in assay [2]; 48 nM in assay [3]; 382 nM in assay [4]; 33 nM in assay [5] (setting [8]); over 10000 nM in assay [6]. In assay [7], this compound came in with an EC50 of 5550 nM. The inhibition at 10 µM in assay [6] was 12.5%.
In the case of `Cc1ncc(-c2ccc3cnc(NC(=O)N4CCOCC4)cc3c2)n1C` [Compound 13, N-(6-(1,2-Dimethyl-1H-imidazol-5-yl)isoquinolin-3-yl)morpholine-4-carboxamide], the EC50 in assay [1] was 3700 nM; in assay [2] it was over 10000 nM; in assay [3] it was 1250 nM; in assay [4], 4700 nM; in assay [5] (setting [8]), 13 nM; in assay [6] it was over 10000 nM. In assay [7], this compound displayed a 50% effective concentration (EC50) of 3510 nM. The inhibition at 10 µM in assay [2] was 38.2%; in assay [6], 17.6%.

The term EC50 denotes the concentration that produces a half-maximal response.
